The record followed here is patent US4176182A, “Sulfamoyl derivatives of 8-β-aminomethylergoline” (priority 1976, dated 1979).

In brackets after ≈: the same amount, converted by molar mass. Read-outs that look alike come from different tables or passages of the source.

Series [1] relates to seminal vesicle of guinea pig. Put plainly: adrenolytic activity, seminal vesicle of guinea pig, in vitro. It counts as cell-based. The note with it: for EC50: Cavia porcellus, adrenolytic activity, in vitro; for times less active as regards the adrenolytic activity: vs comparison compound (dihydroergocristine as alpha-blocking agent).
Another series can be described thus: LD50 in the mouse, iv. The conditions noted are these: in vivo.
Series [2] relates to 5-hydroxytryptamine (serotonin) induced contractions, uterus of female rat. As to the kind of experiment: inhibition of 5-hydroxytryptamine (serotonin)-induced contractions in uterus of female rat, in vitro. It counts as cell-based. The note with it: for EC50: 5-HT-induced contractions, rat treated with estradiol dipropionate 20 hours before; for times more active than the comparison compound as to the anti-5 HT activity: comparison compound methergoline. The procedure:
(§1) These novel compounds show anti-serotonin activity both peripherally and on the central nervous system. This activity had been tested "in vitro" through the inhibition of the contractions as induced by 5-hydroxytryptamine (serotonin) (5 HT) in the uterus of a female rat, which 20 hours before the test had been treated with estradiol dipropionate (see Ersparmer, Archiv. int. Pharmacodyn. 93, 293, 1953), and "in vivo" on the clones induced by tryptamine (40 mg/kg i.v.) in the rat (S. J. Corne et al., Brit. J. Pharmacol., 20, 106, 1963).

The subject of series [3] is clones induced by tryptamine. Put plainly: clones induced by tryptamine in the rat, in vivo. The conditions noted are these: sc, read-out: Clones induced by Tryptamine ED50. As for the experimental part: as §1
Series [4] deals with ileus of guinea pig (BaCl2). As to the kind of experiment: spasmolytic activity, ileus of guinea pig, BaCl2, in vitro. The series is classed as cell-based. The note with it: for EC50: Cavia porcellus, spasmolytic activity, in vitro, no quantity or unit printed in this column head; for times less active as regards the spasmolytic activity: vs comparison compound (papaverine as spasmolytic agent).

On to `CC(C)[C@@]1(NC(=O)[C@@H]2C[C@@H]3c4cccc5[nH]cc(c45)C[C@H]3N(C)C2)O[C@@]2(O)[C@@H]3CCCN3C(=O)[C@H](Cc3ccccc3)N2C1=O` [Dihydroergocristine methansulfonate, dihydroergocristine, reference compound], for which, in series [1], the response was half-maximal at 0.008 µg/mL (EC50). Also, in “LD50 in the mouse, iv”, the LD50 (in general, the dose at which mortality reaches 50%) amounted to 70 mg/kg.

Regarding `CN1C[C@H](CNS(=O)(=O)N2CCCCCC2)C=C2c3cccc4[nH]cc(c34)C[C@H]21` [Compound 7, 1-(1H-hexahydroazepine)-3-(6-methyl-8β-didehydroergolenyl-methyl)-sulfonamide], the concentration for a half-maximal effect (EC50) (commonly the concentration giving half of the maximal effect) was 7 ng/mL (≈ 0.0169 µM) in series [2], 0.8 µg/mL (≈ 1.93 µM) in series [1] and 5 µg/mL (≈ 12.1 µM) in series [4]. Further, the 50% effective dose (ED50) (in general, the midpoint of the dose-response relation) in series [3] (rat, tryptamine 40 mg/kg i.v.) was determined as 2.47 mg/kg. Also, the 50% lethal dose (LD50) in the series “LD50 in the mouse, iv” is 50.2 mg/kg.

Take `CN1C[C@H](CNS(=O)(=O)N(C)C)C[C@@H]2c3cccc4[nH]cc(c34)C[C@H]21` [Compound 2]: the EC50 in series [2] is 5 ng/mL (≈ 0.0138 µM); in series [1], 1.5 µg/mL (≈ 4.14 µM); in series [4], 10 µg/mL (≈ 27.6 µM). Also, the median effective dose (ED50) in series [3] (rat, tryptamine 40 mg/kg i.v.) came out at 10 mg/kg. In addition, in “LD50 in the mouse, iv”, the LD50 was found to be 22.5 mg/kg.

Take `CN1C[C@H](CNC(=O)OCc2ccccc2)C[C@@H]2c3cccc4c3c(cn4C)C[C@H]21` [Methergoline, methergoline, reference compound]: in series [2], it took 5 ng/mL (≈ 0.0124 µM) to reach a half-maximal effect (EC50). Also, the 50% effective dose (ED50) in series [3] (Rattus norvegicus) was 0.062 mg/kg. For the same molecule, in “LD50 in the mouse, iv”, the 50% lethal dose (LD50) amounted to 21.2 mg/kg.

Take `CN1C[C@H](CNS(=O)(=O)N2CCOCC2)C=C2c3cccc4[nH]cc(c34)C[C@H]21` [Compound 9, 1-(6-methyl-8β-didehydroergolenylmethyl)-3-morpholino-sulfonamide]: the EC50 in series [2] stood at 5 ng/mL (≈ 0.0124 µM); in series [1], 0.1 µg/mL (≈ 0.248 µM); in series [4], 15 µg/mL (≈ 37.3 µM). Also, the ED50 in series [3] (rat, tryptamine 40 mg/kg i.v.) came out at 4.25 mg/kg. In addition, the 50% lethal dose (LD50) in the series “LD50 in the mouse, iv” was found to be 34.5 mg/kg.

Consider `CN1C[C@H](CNS(=O)(=O)N2CCCCC2)C=C2c3cccc4c3c(cn4C)C[C@H]21` [Compound 12, 1-(1,6-dimethyl-8β-didehydroergolenylmethyl)-3-piperidino-sulfonamide], for which, in series [2], the EC50 stood at 0.02 ng/mL (≈ 4.82e-05 µM) and the “times more active than the comparison compound as to the anti-5 HT activity” value turned out to be 250 times. Also, the 50% effective dose (ED50) in series [3] (rat, tryptamine 40 mg/kg i.v.) was 0.046 mg/kg. Further, in series [1], the midpoint of the response, the EC50, lay at 1 µg/mL (≈ 2.41 µM) and the “times less active as regards the adrenolytic activity” value was determined as 25 times. In addition, in series [4], a half-maximal response (EC50) required 15 µg/mL (≈ 36.2 µM) and the “times less active as regards the spasmolytic activity” value was found to be 2 times. This molecule also yielded a median lethal dose (LD50) in the series “LD50 in the mouse, iv” of 20 mg/kg.

The molecule `COc1ccc(Cc2nccc3cc(OC)c(OC)cc23)cc1OC` [Papaverin, papaverine, reference compound] displayed a concentration for a half-maximal effect (EC50) in series [4] of 8.9 µg/mL (≈ 26.2 µM). This molecule also returned a median lethal dose (LD50) in “LD50 in the mouse, iv” of 38 mg/kg.

For the molecule `CN1C[C@H](CNS(=O)(=O)N2CCCCC2)C=C2c3cccc4[nH]cc(c34)C[C@H]21` [Compound 5, 1-(6-methyl-8β-didehydroergolenylmethyl)-3-piperidino-sulfonamide], the concentration giving a half-maximal response (EC50) was 3 ng/mL (≈ 0.00749 µM) in series [2], 0.2 µg/mL (≈ 0.499 µM) in series [1] and 7.5 µg/mL (≈ 18.7 µM) in series [4]. The ED50 in series [3] (rat, tryptamine 40 mg/kg i.v.) was 0.51 mg/kg. For the same molecule, the 50% lethal dose (LD50) in the series “LD50 in the mouse, iv” stood at 45 mg/kg.

For `CN1C[C@H](CNS(=O)(=O)N2CCCC2)C=C2c3cccc4c3c(cn4C)C[C@H]21` [Compound 11, 1-(1,6-dimethyl-8β-didehydroergolenylmethyl)-3-pyrrolidine-sulfonamide], in series [2], the midpoint of the response, the EC50, lay at 0.2 ng/mL (≈ 0.000499 µM) and the “times more active than the comparison compound as to the anti-5 HT activity” value worked out at 25 times. The 50% effective dose (ED50) in series [3] (rat, tryptamine 40 mg/kg i.v.) worked out at 0.016 mg/kg. For the same molecule, in series [1], the EC50 came out at 1 µg/mL (≈ 2.5 µM) and the “times less active as regards the adrenolytic activity” value is given as 25 times. Moreover, in series [4], a half-maximal effect (EC50) was put at 15 µg/mL (≈ 37.4 µM) and the “times less active as regards the spasmolytic activity” value came to 2 times. In addition, in the series “LD50 in the mouse, iv”, the median lethal dose (LD50) came out at 22.3 mg/kg.

Take `CN1C[C@H](CNS(=O)(=O)N2CCOCC2)C[C@@H]2c3cccc4[nH]cc(c34)C[C@H]21` [Compound 10]: the values for the EC50 in series [2], in series [1] and in series [4] were 5 ng/mL (≈ 0.0124 µM), 0.07 µg/mL (≈ 0.173 µM) and 5 µg/mL (≈ 12.4 µM), respectively. In addition, in series [3] (rat, tryptamine 40 mg/kg i.v.), the 50% effective dose (ED50) stood at 7.2 mg/kg. The molecule also displayed an LD50 in “LD50 in the mouse, iv” of 51 mg/kg.
